Values joined by “and” are separate entries in the source; they are usually repeats but may differ in a detail not shown here. Equal entries are not always repeated. A value given as a limit tells only on which side of the number the result lay.

For the first assay, the target named is T1, hURAT1 (Homo sapiens, UniProt Q96S37).
T1 sequence (Q96S37 1-553): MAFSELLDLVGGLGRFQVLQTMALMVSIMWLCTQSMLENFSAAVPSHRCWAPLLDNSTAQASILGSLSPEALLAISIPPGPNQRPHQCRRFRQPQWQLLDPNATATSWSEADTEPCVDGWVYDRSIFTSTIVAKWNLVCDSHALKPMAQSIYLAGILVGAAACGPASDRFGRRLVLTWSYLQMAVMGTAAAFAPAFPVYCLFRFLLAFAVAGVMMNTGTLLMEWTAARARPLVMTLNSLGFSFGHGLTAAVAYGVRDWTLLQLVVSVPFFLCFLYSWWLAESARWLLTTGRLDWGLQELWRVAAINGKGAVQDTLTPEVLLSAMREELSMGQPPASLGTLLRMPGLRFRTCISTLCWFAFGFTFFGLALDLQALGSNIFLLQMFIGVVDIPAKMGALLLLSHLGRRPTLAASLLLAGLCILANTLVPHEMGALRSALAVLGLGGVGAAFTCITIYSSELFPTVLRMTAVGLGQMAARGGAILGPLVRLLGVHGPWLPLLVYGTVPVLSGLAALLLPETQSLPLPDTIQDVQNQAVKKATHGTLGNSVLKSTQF
Put plainly: Inhibitory activity against URAT1: 14C-labelled uric acid uptake in HEK-293t cells stably expressing hURAT1. Type of assay: cell-based. To be noted: HEK-293t/hURAT1 cells, 14C uric acid uptake, 5 minutes at room temperature; Ref Cpd 2, 83, Ref Cpd 3 and 129 are averages of head-to-head tests; read-out: IC50 (nM) of hURAT1 inhibitory activity. An excerpt: • Test example: Determination of the inhibitory activity of compounds according to the present invention against URAT1 Experimental Materials • FBS (Invitrogen, Cat. No. 10099141) • Trypsin (Invitrogen, Cat. No. 25200056) • DPBS (Invitrogen, Cat. No. 14190250) • DMEM (Invitrogen, Cat. No. 10564) • Penicillin-Streptomycin (Invitrogen, Cat. No. 15070-063) • TransIT-293 Transfection Reagent (MIRUS BIO, Cat. No. MIR2706) • Opti-MEM® I Reduced Serum Medium (Invitrogen, Cat. No. 31985-070) • URAT1 plasmid (Genecopoeia, Cat. No. EX-T4563-M03) • Uric acid [8-14C] (ARC, Cat. No. ARC0513-250UCI) • Ultima Gold™ XR (PerkinElmer, Cat. No. 6013111) • Benzbromarone (J&K Scientific, Cat. No. 3562-84-3) • D-Gluconic acid sodium salt (Aladdin, Cat. No. 527-07-1) • Potassium D-gluconate (Aladdin, Cat. No. 299-27-4) • Calcium gluconate (Aladdin, Cat. No. 299-28-5) • DMSO (Sigma, Cat. No. D2650) • Tube, 15 ml (Greiner, Cat. No. 07030115) • Tube, 50 ml (BD Falcon, Cat. No. 352098) • Poly-D-lysine 96-well microplates (BD, Cat. No. 356461) • Isoplate-96 Microplate (PERKIN ELMER, Cat. No. 6005040) Experimental Method:
Cell Culture: • 1. The HEK-293t cells that expressed the stable expression of hURAT1 were cultured in DMEM medium containing 10% FBS and 1% P/S, and incubated overnight in the incubator at 37° C. under 5% carbon dioxide. • 2. the culture medium was removed, and the cells were washed with PBS, and then the pancreatin was added to digest for 2 minutes. After the cell is separated from the dish, 10 ml of medium was added to terminate digestion. • 3. The cells were placed into a centrifugal apparatus and centrifugated for 2 minutes at the speed of 1000 rpm, followed by the addition of fresh 10 mL medium to resuspend the cells, and calculate the number of cells. The number of cells was adjusted to 4×10^5 cells/mL. • 4. the above counted cells were inoculated into the 96-well plate at 100 μL/well. • 5. The 96-well plate with inoculated cells was placed in a 37° C. cell incubator and cultivated overnight.
The uric acid absorption experiment labeled with isotope C14: • 1. 5 mL of Cl-free HBSS buffer was added to a 15 mL centrifuge tube, followed by the addition of the uric acid labeled with C14, and the concentration of uric acid was 2 uCi/ml. • 2. The medium in the 96-well plate that was previously cultivated overnight was removed, and the plate was washed three times with […] preheated Cl-free HBSS buffer. • 3. The buffer in the well-washed 96-well plate was removed. • 4. […] Cl-free HBSS buffer containing C-14 labeled uric acid was added into each well in the cleaned 96-well plate, and then DMSO solution of the compound that needs to be tested was added. • 5. After the 96-well plate stood for 5 minutes at room temperature, all the liquid in it was removed. • 6. […] precooled Cl-free HBSS buffer was added to wash the plate three times. • 7. After the remained liquid in the plates was completely removed, 50 μL cell lysis was added to each well, and the plate was agitated on the mixer at a speed of 600 revolutions/min for 10 minutes. • 8. After 50 μL Ultima Gold™ XR scitillation cocktail fluid was added, the plate was continued to agitate for 10 minutes. The well-agitated plate was sealed, and the data was read on MicroBeta Trilux. • 9. The test compound was dissolved in DMSO, and DMSO at the same concentration was added to the HEK293/hURAT1 cell well without test compounds. […] The radiation value obtained from the well containing DMSO is considered to be 100% of the cell uptake. The IC50 values of compounds can be calculated by the inhibition rate at different concentrations.
Among them, reference compound 1 was synthesized according to the method described in patent WO 2011/159839 A2. Reference compound 2 and reference compound 3 were synthesized according to the method described in patent WO 2014/183555 A1, and they were head-to-head tested with compounds 83 and 129 respectively under the same conditions.
Regarding “2-(6-(2-fluoropyridin-4-yl)-quinolin-4-ylthio)-2-ethylbutanoic acid [Compound 118]”, the 50% inhibitory concentration (IC50) amounted to 36 nM.
Still for that read-out and setting: in the case of “2-(6-(3-fluoropyridin-4-yl)-quinolin-4-ylthio)-2-ethylbutanoic acid [Compound 123]” it was 1400 nM; in that of `CC(C)(Sc1ccnc2ccc(C3CC3)cc12)C(=O)O` [Compound 1, 2-(6-cyclopropylquinolin-4-ylthio)-2-methylpropanoic acid], 486 nM.
For the molecule `CC(C)(Sc1ccnc2ccc(-c3cccnc3)cc12)C(=O)O` [Compound 3, 2-(6-(pyridin-3-yl)quinolin-4-ylthio)-2-methylpropanoic acid], the IC50 is 514 nM.
Consider `CC(C)(Sc1ccnc2ccc(-c3ccncc3)cc12)C(=O)O` [Compound 4, 2-(6-(pyridin-4-yl)quinolin-4-ylthio)-2-methylpropanoic acid], for which the 50% inhibitory concentration (IC50) was 127 nM.
Take `COc1ccccc1-c1ccc2nccc(SC(C)(C)C(=O)O)c2c1` [Compound 19, 2-(6-(2-methoxyphenyl)-quinolin-4-ylthio)-2-methylpropanoic acid]: the IC50 worked out at 472 nM.
With `COc1cccc(-c2ccc3nccc(SC(C)(C)C(=O)O)c3c2)c1` [Compound 20, 2-(6-(3-methoxyphenyl)-quinolin-4-ylthio)-2-methylpropanoic acid], the concentration for half-maximal inhibition (IC50) came out at 21 nM.
Regarding `COc1ccc(-c2ccc3nccc(SC(C)(C)C(=O)O)c3c2)cc1` [Compound 21, 2-(6-(4-methoxyphenyl)quinolin-4-ylthio)-2-methylpropanoic acid], the half-inhibitory concentration (IC50) was 1900 nM.
Regarding `CC(C)(Sc1ccnc2ccc(Br)cc12)C(=O)O` [Compound 22, 2-((6-bromoquinolin-4-yl)thio)-2-methylpropanoic Acid], the IC50 was 159 nM.
For `CCC(Sc1ccnc2ccc(Br)cc12)C(=O)O` (stereo not shown) [Compound 24, 2-(6-bromoquinolin-4-ylthio)butanoic acid], the half-maximal inhibitory concentration (IC50) came to 6000 nM.
For `CC(C)(Sc1ccnc2ccc(-c3ccccc3F)cc12)C(=O)O` [Compound 25, 2-(6-(2-fluorophenyl)-quinolin-4-ylthio)-2-methylpropanoic acid], the IC50 is 812 nM.
Take `CC(C)(Sc1ccnc2ccc(-c3cccc(F)c3)cc12)C(=O)O` [Compound 28, 2-(6-(3-fluorophenyl)-quinolin-4-ylthio)-2-methylpropanoic acid]: the IC50 was 351 nM.
With `CC(C)(Sc1ccnc2ccc(-c3ccc(C(F)(F)F)cc3)cc12)C(=O)O` [Compound 34, 2-(6-(4-(trifluoromethyl)phenyl)quinolin-4-ylthio)-2-methylpropanoic acid], the IC50 came to 4600 nM.
Still for that read-out and setting: the value for `CC(C)(Sc1ccnc2ccc(-c3ccccc3C(F)(F)F)cc12)C(=O)O` [Compound 37] was 325 nM; that for `CCC(CC)(Sc1ccnc2ccc(Br)cc12)C(=O)O` [Compound 83, 2-(6-bromoquinolin-4-ylthio)-2-ethylbutanoic acid] was 70.6 nM.
`CC(C)(Sc1ccnc2ccccc12)C(=O)O` [Compound 93, 2-(quinolin-4-ylthio)-2-methylpropanoic acid]: the IC50 came to 2400 nM.
Turning to `CC(C)C(Sc1ccnc2ccc(Br)cc12)C(=O)O` (stereo not shown) [Compound 94, 2-(6-bromoquinolin-4-ylthio)-3-methylbutanoic acid], the IC50 is 4300 nM.
For the molecule `COc1cc2nccc(SC(C)(C)C(=O)O)c2cc1OC` [Compound 95, 2-(6,7-dimethoxyquinolin-4-ylthio)-2-methylpropanoic acid], the IC50 is > 30000 nM.
Consider `CC(C)(Sc1ccnc2ccc(C(F)(F)F)cc12)C(=O)O` [Compound 96, 2-(6-trifluoromethylquinolin-4-ylthio)-2-methylpropanoic acid], for which the IC50 worked out at 772 nM.
Regarding `CC(C)(Sc1ccnc2ccc(-c3ccc(C#N)cc3)cc12)C(=O)O` [Compound 100, 2-(6-(4-cyano-phenyl)-quinolin-4-ylthio)-2-methylpropanoic acid], the IC50 was 8140 nM.
The same measure, in the same setting: in the case of `CC(C)(Sc1ccnc2ccc(-c3cccc(OC(F)(F)F)c3)cc12)C(=O)O` [Compound 101, 2-(6-(3-trifluoromethoxy-phenyl)-quinolin-4-ylthio)-2-methylpropanoic acid] it was 710 nM.
`CCOc1cccc(-c2ccc3nccc(SC(C)(C)C(=O)O)c3c2)c1` [Compound 102, 2-(6-(3-ethoxy-phenyl)-quinolin-4-ylthio)-2-methylpropanoic acid]: the IC50 amounted to 32 nM.
Consider `CC(C)Oc1cccc(-c2ccc3nccc(SC(C)(C)C(=O)O)c3c2)c1` [Compound 103, 2-(6-(3-isopropoxy-phenyl)-quinolin-4-ylthio)-2-methylpropanoic acid], for which the concentration for half-maximal inhibition (IC50) turned out to be 37 nM.
As for `CC(C)(Sc1ccnc2ccc(-c3cccc(OC(F)F)c3)cc12)C(=O)O` [Compound 104], the IC50 is 238 nM.
Turning to `CS(=O)(=O)NC(=O)C1(Sc2ccnc3ccc(Br)cc23)CCC1` [Compound 107, 1-(6-bromoquinolin-4-ylthio)-N-(methylsulfonyl)cyclobutyl-1-formamide], the IC50 stood at 336 nM.
`CCCC(CCC)(Sc1ccnc2ccc(-c3cccc(OCC)c3)cc12)C(=O)O` [Compound 108, 2-(6-(3-ethoxy-phenyl)-quinolin-4-ylthio)-2-propylpentanoic acid]: the IC50 amounted to 523 nM.
Same read-out and setting: the value for `CCCC(CCC)(Sc1ccnc2ccc(-c3cccc(OC4CC4)c3)cc12)C(=O)O` [Compound 109, 2-(6-(3-cyclopropyloxy-phenyl)-quinolin-4-ylthio)-2-propylpentanoic acid] was 722 nM; that for `CCCC(CCC)(Sc1ccnc2ccc(-c3cccc(OC4CCC4)c3)cc12)C(=O)O` [Compound 110, 2-(6-(3-cyclobutyloxy-phenyl)-quinolin-4-ylthio)-2-propylpentanoic acid] was 2860 nM.

The assay is the same for the next values; noted with them: average of the multiple head-to-head comparison tests, Table 2; read-out: Average (IC50 of multiple determinations).
As for `CCC(CC)(Sc1ccnc2ccc(Br)cc12)C(=O)O` [Compound 83, 2-(6-bromoquinolin-4-ylthio)-2-ethylbutanoic acid], the IC50 was found to be 70.6 nM.

Still in this assay, the particulars now being: single determinations of multiple head-to-head tests, Ref cpd 2 vs Cpd 83; read-out: Multiple determination data (IC50).
In the case of `CCC(CC)(Sc1ccnc2ccc(Br)cc12)C(=O)O` [Compound 83, 2-(6-bromoquinolin-4-ylthio)-2-ethylbutanoic acid], the IC50 was 42.5 nM and 117 nM and 89 nM and 93 nM and 56 nM and 58 nM and 38.9 nM.

The same assay, now with this note: statement in the text on Table 1.
Consider `CCC(CC)(Sc1ccnc2ccc(Br)cc12)C(=O)O` [Compound 83, 2-(6-bromoquinolin-4-ylthio)-2-ethylbutanoic acid], for which the “inhibitory effect on uric acid transporter URAT1 (in words)” value is reported as “better inhibitory activity against the uric acid transporter than compound 1”.
